{"source": "paper PMC7044277", "about": "(Nature Communications, 2020)", "key": {"DRD4 (D4.4 variant) [1]": {"target": "T1, DRD4 (D4.4 variant) (Homo sapiens, UniProt P21917)", "T1 sequence (P21917 1-419)": "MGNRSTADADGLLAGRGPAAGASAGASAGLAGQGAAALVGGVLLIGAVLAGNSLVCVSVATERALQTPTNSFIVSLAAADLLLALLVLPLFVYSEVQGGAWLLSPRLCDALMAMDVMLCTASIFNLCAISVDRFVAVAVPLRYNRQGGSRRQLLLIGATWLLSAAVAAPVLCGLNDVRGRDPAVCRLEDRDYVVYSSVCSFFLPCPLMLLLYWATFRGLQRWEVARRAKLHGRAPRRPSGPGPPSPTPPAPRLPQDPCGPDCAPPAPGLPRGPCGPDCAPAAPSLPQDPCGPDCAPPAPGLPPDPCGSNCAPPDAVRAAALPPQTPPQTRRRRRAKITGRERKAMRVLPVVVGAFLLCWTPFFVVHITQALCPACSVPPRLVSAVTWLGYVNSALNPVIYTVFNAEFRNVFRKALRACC", "experiment": "β-arrestin2 recruitment (Tango)", "assay_type": "cell-based", "details": "DRD4; Tango; read-out: EC50 ± SEM"}, "DRD3 F1063.28A": {"target": "DRD3 F1063.28A (Homo sapiens, UniProt P35462, F106A)", "sequence (P35462 whole entry F106A)": "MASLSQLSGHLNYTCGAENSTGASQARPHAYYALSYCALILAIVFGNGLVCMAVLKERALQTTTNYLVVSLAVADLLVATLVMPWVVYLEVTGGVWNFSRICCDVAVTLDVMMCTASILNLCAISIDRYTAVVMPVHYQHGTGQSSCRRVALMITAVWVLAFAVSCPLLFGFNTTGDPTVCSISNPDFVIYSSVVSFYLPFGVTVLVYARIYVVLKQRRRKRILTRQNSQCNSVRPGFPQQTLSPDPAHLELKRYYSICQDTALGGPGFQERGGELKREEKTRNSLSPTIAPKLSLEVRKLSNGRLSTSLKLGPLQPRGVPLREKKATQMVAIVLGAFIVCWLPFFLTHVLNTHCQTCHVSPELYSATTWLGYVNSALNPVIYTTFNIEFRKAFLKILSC", "experiment": "biochemical", "assay_type": "binding"}, "320 non-olfactory GPCRs": {"target": "T2, 320 non-olfactory GPCRs (Homo sapiens, UniProt Q9UKP6)", "T2 construct": "expressed in transfected cells; host or cells: HTLA cells", "assay_type": "cell-based", "details": "receptor UTS2R; replicate values, Fig_4g"}, "DRD2 F1103.28A": {"target": "DRD2 F1103.28A (Homo sapiens, UniProt P14416, F110A)", "sequence (P14416 whole entry F110A)": "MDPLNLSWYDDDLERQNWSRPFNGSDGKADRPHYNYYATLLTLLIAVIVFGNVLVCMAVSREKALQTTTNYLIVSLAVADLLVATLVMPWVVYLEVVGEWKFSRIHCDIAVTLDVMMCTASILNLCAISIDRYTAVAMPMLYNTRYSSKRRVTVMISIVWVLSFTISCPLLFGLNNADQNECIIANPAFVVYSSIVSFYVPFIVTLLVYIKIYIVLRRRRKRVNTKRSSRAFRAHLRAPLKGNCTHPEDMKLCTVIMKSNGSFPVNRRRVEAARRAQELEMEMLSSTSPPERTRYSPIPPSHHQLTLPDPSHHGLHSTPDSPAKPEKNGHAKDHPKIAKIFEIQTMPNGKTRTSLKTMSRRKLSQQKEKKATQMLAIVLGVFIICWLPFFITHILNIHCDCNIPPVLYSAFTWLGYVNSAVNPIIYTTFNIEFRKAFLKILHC", "experiment": "Gαi/o-mediated cAMP inhibition (GloSensor), mutant", "assay_type": "cell-based", "parameters": "expressed in transfected cells; host or cells: HEK293T (ATCC CRL-11268)"}, "DRD2 (D2 long receptor)": {"target": "DRD2 (D2 long receptor) (Homo sapiens, UniProt P14416)", "sequence (P14416 whole entry)": "as the sequence (P14416 whole entry F110A) above, with A110F counted along it", "experiment": "Gαi/o-mediated cAMP inhibition (GloSensor split-luciferase cAMP reporter), HEK293T;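 as to all read-outs here: compounds applied 15 min at room temperature, then luciferin plus 400 nM isoproterenol to raise cAMP through endogenous β2-adrenergic receptors, luminescence read 15 min later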", "assay_type": "cell-based", "details": "for response, Fig_S11d dose-response source data: replicate values; for Response, Fig_S11b dose-response: individual replicates"}, "DRD4 (D4.4 variant) [2]": {"target": "T1, DRD4 (D4.4 variant)", "experiment": "Gαi/o-mediated cAMP inhibition (GloSensor)", "assay_type": "cell-based", "details": "DRD4; agonist, cAMP inhibition; read-out: EC50 ± SEM"}}, "note": "Values joined by “and” are separate entries in the source; they are usually repeats but may differ in a detail not shown here. Identical values can stand only once.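 For GPCRome agonism screen response in this document: fold over basal response of each receptor without drug.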", "data": [{"smiles": "CCOc1cccc2cc(C(C)NCC3(O)CCCCC3)oc12", "note": "(centres unmarked) [O4LE6]", "values": [{"measurement": "EC50", "setting": "DRD4 (D4.4 variant) [1]", "value": "> 10", "unit": "µM"}, {"measurement": "Ki", "setting": "DRD3 F1063.28A", "value": 460, "unit": "nM"}, {"measurement": "affinity decreased, mutant vs wild type", "setting": "DRD3 F1063.28A; DRD3 Phe106^3.28Ala vs wild-type DRD3", "value": 2.09, "unit": "fold"}, {"measurement": "GPCRome agonism screen response", "setting": "320 non-olfactory GPCRs", "value": "1.786 and 2.312 and 1.032"}, {"measurement": "EC50", "setting": "DRD2 F1103.28A", "value": "> 10", "unit": "µM"}, {"measurement": "EC50", "setting": "DRD2 (D2 long receptor); DRD2, agonist, Gαi/o-mediated cAMP inhibition, read-out: EC50 ± SEM", "value": 0.57, "unit": "nM"}, {"measurement": "response, Fig_S11d dose-response source data", "setting": "DRD2 (D2 long receptor); Log[Drug] -6.52", "value": 93.5634}, {"measurement": "response, Fig_S11d dose-response source data", "setting": "DRD2 (D2 long receptor); Log[Drug] -7", "value": "91.3799 and 89.9656 and 96.7642 and 92.7028 and 90.0117 and 92.9852 and 92.6706 and 90.0792 and 94.9443"}, {"measurement": "response, Fig_S11d dose-response source data", "setting": "DRD2 (D2 long receptor); Log[Drug] -7.52", "value": "89.3701 and 83.9361 and 92.3724 and 89.5789 and 91.7807 and 86.0032 and 96.0478 and 86.7857 and 84.4618"}, {"measurement": "response, Fig_S11d dose-response source data", "setting": "DRD2 (D2 long receptor); Log[Drug] -8", "value": "70.6367 and 72.3736 and 84.6805 and 78.0803 and 77.3651 and 77.1016 and 86.6519 and 79.5632 and 77.7576"}, {"measurement": "response, Fig_S11d dose-response source data", "setting": "DRD2 (D2 long receptor); Log[Drug] -8.52", "value": "93.2656 and 95.6724 and 92.9431 and 77.1769 and 79.2659 and 71.4182 and 77.4232 and 75.6176 and 79.697"}, {"measurement": "response, Fig_S11d dose-response source data", "setting": "DRD2 (D2 long receptor); Log[Drug] -9", "value": "51.5311 and 33.9143 and 52.5981 and 65.5842 and 66.7322 and 55.2712 and 58.2302 and 71.02 and 60.3368"}, {"measurement": "response, Fig_S11d dose-response source data", "setting": "DRD2 (D2 long receptor); Log[Drug] -9.52", "value": "27.2398 and 43.5167 and 44.7822 and 40.3099 and 41.1379 and 42.7564 and 40.5085 and 50.7403 and 30.2265"}, {"measurement": "response, Fig_S11d dose-response source data", "setting": "DRD2 (D2 long receptor); Log[Drug] -10", "value": "9.9455 and 25.9991 and 17.2652 and 20.7754 and 27.795 and 3.65 and 25.4283 and 30.0426 and 37.3152"}, {"measurement": "response, Fig_S11d dose-response source data", "setting": "DRD2 (D2 long receptor); Log[Drug] -10.52", "value": "8.06 and 24.1134 and 23.7164 and -2.2029 and 14.9603 and -7.6605 and -4.2473 and 22.3855 and 15.9154"}, {"measurement": "response, Fig_S11d dose-response source data", "setting": "DRD2 (D2 long receptor); Log[Drug] -11", "value": "4.9334 and 7.216 and -1.766 and -6.3996 and -4.3107 and -5.3646 and 21.048 and 18.6238 and 5.767"}, {"measurement": "response, Fig_S11d dose-response source data", "setting": "DRD2 (D2 long receptor); Log[Drug] -11.52", "value": "10.5658 and 8.68 and -1.4434 and 5.588 and 4.9296 and 13.8311 and 19.0585 and 28.0698 and 34.2223"}, {"measurement": "response, Fig_S11d dose-response source data", "setting": "DRD2 (D2 long receptor); Log[Drug] -12", "value": "-7.7209 and 3.569 and -11.1202 and -5.7974 and -18.3122 and 14.3957 and 12.4212 and 21.7836 and -1.1209"}, {"measurement": "Emax", "setting": "DRD2 (D2 long receptor); HEK-293T, read-out: Emax relative to quinpirole response, DRD2, cAMP inhibition", "value": 94.8, "unit": "%"}, {"measurement": "Response, Fig_S11b dose-response", "setting": "DRD2 (D2 long receptor); Log[Drug] -5", "value": "94.6799 and 95.4987 and 95.201 and 94.3966 and 96.6361 and 95.6198 and 95.7635 and 88.9256 and 95.1617"}, {"measurement": "Response, Fig_S11b dose-response", "setting": "DRD2 (D2 long receptor); Log[Drug] -5.52", "value": "94.4814 and 96.3424 and 99.171 and 96.9372 and 94.2837 and 95.6198 and 98.4051 and 98.5221 and 95.5796"}, {"measurement": "Response, Fig_S11b dose-response", "setting": "DRD2 (D2 long receptor); Log[Drug] -6", "value": "96.5905 and 98.1785 and 100.163 and 88.2615 and 91.4043 and 96.2597 and 93.8409 and 94.9611 and 95.7301"}, {"measurement": "Response, Fig_S11b dose-response", "setting": "DRD2 (D2 long receptor); Log[Drug] -6.52", "value": "93.5634 and 99.7168 and 93.0671 and 101.473 and 96.4667 and 100.061 and 98.4218 and 97.9202 and 92.704"}, {"measurement": "Response, Fig_S11b dose-response", "setting": "DRD2 (D2 long receptor); Log[Drug] -7", "value": "91.3799 and 89.9656 and 96.7642 and 92.7028 and 90.0117 and 92.9852 and 92.6706 and 90.0792 and 94.9443"}, {"measurement": "Response, Fig_S11b dose-response", "setting": "DRD2 (D2 long receptor); Log[Drug] -7.52", "value": "89.3701 and 83.9361 and 92.3724 and 89.5789 and 91.7807 and 86.0032 and 96.0478 and 86.7857 and 84.4618"}, {"measurement": "Response, Fig_S11b dose-response", "setting": "DRD2 (D2 long receptor); Log[Drug] -8", "value": "70.6367 and 72.3736 and 84.6805 and 78.0803 and 77.3651 and 77.1016 and 86.6519 and 79.5632 and 77.7576"}, {"measurement": "Response, Fig_S11b dose-response", "setting": "DRD2 (D2 long receptor); Log[Drug] -8.52", "value": "93.2656 and 95.6724 and 92.9431 and 77.1769 and 79.2659 and 71.4182 and 77.4232 and 75.6176 and 79.697"}, {"measurement": "Response, Fig_S11b dose-response", "setting": "DRD2 (D2 long receptor); Log[Drug] -9", "value": "51.5311 and 33.9143 and 52.5981 and 65.5842 and 66.7322 and 55.2712 and 58.2302 and 71.02 and 60.3368"}, {"measurement": "Response, Fig_S11b dose-response", "setting": "DRD2 (D2 long receptor); Log[Drug] -11", "value": 4.9334}, {"measurement": "Response, Fig_S11b dose-response", "setting": "DRD2 (D2 long receptor); Log[Drug] -11.52", "value": "10.5658 and 8.68 and -1.4434 and 5.588 and 4.9296 and 13.8311 and 19.0585 and 28.0698 and 34.2223"}, {"measurement": "Response, Fig_S11b dose-response", "setting": "DRD2 (D2 long receptor); Log[Drug] -12", "value": "-7.7209 and 3.569 and -11.1202 and -5.7974 and -18.3122 and 14.3957 and 12.4212 and 21.7836 and -1.1209"}, {"measurement": "EC50", "setting": "DRD4 (D4.4 variant) [2]", "value": "> 10", "unit": "µM"}]}]}
